From patent US6362369B1, “Phthalic acid diamide derivatives fluorine-containing aniline compounds as starting material, agricultural and horticultural insecticides, and a method for application of the insecticides” (Nihon Nohyaku Co., Ltd., priority 1997, dated 2002)

How the values were obtained:
Type in all cases: in vivo
[1] = tested on: diamondback moth (Plutella xylostella); assay: Insecticidal effect on diamondback moth (Test Example 1); details: diamondback moth; mortality judged by criterion of Test Example 1
Procedure, shortened: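 Chinese cabbage seedlings carrying eggs laid by released adult moths were immersed in treatment, air-dried and held at 25° C. Hatched insects were counted six days after immersion, and mortality was calculated and scored against a fixed criterion. Three replicate groups of 10 insects were used.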

[2] = tested on: common cutworm (Spodoptera Litura); assay: Insecticidal effect on common cutworm (Test Example 2); details: common cutworm second-instar larvae; cabbage leaf immersed, 500 ppm; eight days after inoculation; 25° C.
Procedure, shortened: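 Insecticidal effect was rated from percent mortality of second-instar larvae exposed to air-dried treatment at 25° C for 8 days.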

[3] = tested on: rice leafroller (Cnaphalocrocis medinalis); assay: Insecticidal effect on rice leafroller (Test Example 3); details: rice leafroller third-instar larvae; rice lamina immersed, 500 ppm; four days after inoculation; 25° C., humidity 70%
Procedure, shortened: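 Groups of 10 third-instar larvae, in triplicate, are placed on air-dried lamina resting on wet filter paper. Incubation runs four days at 25° C with 70% humidity before survivors and dead are tallied.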

Row | Structure (SMILES) | Insecticidal effect, Test Example 1 [1] | Insecticidal effect, Test Example 2 [2] | Insecticidal effect, Test Example 3 [3]
1 | CC(C)NC(=O)c1c(I)cccc1C(=O)Nc1ccc2oc(C(F)(F)C(F)(F)F)nc2c1 [compound 1142] | A (100) | A (100) | A (100)
2 | CC(C)(C)NC(=O)c1c(I)cccc1C(=O)Nc1ccc2oc(C(F)(F)C(F)(F)F)nc2c1 [compound 1143] | A (100) | C (89-80) | A (100)
3 | CCN(CC)C(=O)c1c(I)cccc1C(=O)Nc1ccc(C(F)(F)F)cc1C [compound 1144] | A (100) | A (100) | A (100)
4 | CC(C)NC(=O)c1c(C(=O)Nc2ccc3c(c2)OC(F)C(F)(F)O3)cccc1[N+](=O)[O-] (stereo not drawn) [compound 1146] | A (100) | C (89-80) | A (100)
5 | CC(C)NC(=O)c1c(Cl)cccc1C(=O)Nc1ccc2c(c1)OC(F)C(F)(F)O2 (stereo not drawn) [compound 1147] | A (100) | A (100) | A (100)
6 | CC(C)NC(=O)c1c(I)cccc1C(=O)Nc1ccc2c(c1)OC(F)C(F)(F)O2 (stereo not drawn) [compound 1148] | A (100) | A (100) | A (100)
7 | CC(C)(C)NC(=O)c1c(I)cccc1C(=O)Nc1ccc2c(c1)OC(F)C(F)(F)O2 (stereo not drawn) [compound 1150] | A (100) | A (100) | A (100)
8 | CCN(CC)C(=O)c1c(I)cccc1C(=O)Nc1ccc2c(c1)OC(F)C(F)(F)O2 (stereo not drawn) [compound 1151] | A (100) | A (100) | A (100)
9 | CCC(C)(C)NC(=O)c1c(F)cccc1C(=O)Nc1ccc(C(F)(F)C(F)(F)F)cc1C [compound 1152] | A (100) | A (100) | A (100)
10 | CCC(C)(C)NC(=O)c1c(F)cccc1C(=O)Nc1ccc(C(F)(C(F)(F)F)C(F)(F)F)cc1C [compound 1153] | A (100) | A (100) | A (100)
11 | CCC(C)(C)NC(=O)c1c(F)cccc1C(=O)Nc1ccc(OC(F)(F)F)cc1C [compound 1154] | A (100) | C (89-80) | A (100)
12 | CCCN(CCC)C(=O)c1c(I)cccc1C(=O)Nc1ccc(OC(F)(F)F)cc1C [compound 1156] | A (100) | A (100) | A (100)
13 | CCCN(CCC)C(=O)c1c(I)cccc1C(=O)Nc1ccc(OC(F)(F)C(F)F)cc1C [compound 1158] | A (100) | D (79-50) | A (100)
14 | CCN(C(=O)c1c(I)cccc1C(=O)Nc1ccc(C(F)(F)C(F)(F)F)cc1C)C(C)C [compound 1159] | A (100) | A (100) | A (100)
15 | CCN(C(=O)c1c(I)cccc1C(=O)Nc1ccc(OC(F)(F)F)cc1)C(C)C [compound 1160] | A (100) | A (100) | A (100)
16 | CC(C)NC(=O)c1c(I)cccc1C(=O)Nc1ccc2c(c1)OC(F)(F)C(F)O2 (stereo not drawn) [compound 1161] | A (100) | D (79-50) | A (100)
17 | CC(C)NC(=O)c1c(C(=O)Nc2ccc3c(c2)OC(F)(F)C(F)O3)cccc1[N+](=O)[O-] (stereo not drawn) [compound 1162] | A (100) | A (100) | A (100)
18 | CC(C)NC(=O)c1c(Cl)cccc1C(=O)Nc1ccc2c(c1)OC(F)(F)C(F)O2 (stereo not drawn) [compound 1163] | A (100) | A (100) | A (100)
19 | CC(C)NC(=O)c1c(I)cccc1C(=O)Nc1ccc2c(c1)OC(F)(F)C(F)O2 (stereo not drawn) [compound 1164] | A (100) | A (100) | A (100)
20 | CC(C)(C)NC(=O)c1ccccc1C(=O)Nc1ccc2c(c1)OC(F)(F)C(F)O2 (stereo not drawn) [compound 1165] | A (100) | A (100) | A (100)

Row | Structure (SMILES) | Insecticidal effect, Test Example 1 [1] | Insecticidal effect, Test Example 2 [2] | Insecticidal effect, Test Example 3 [3]
21 | CCN(CC)C(=O)c1c(I)cccc1C(=O)Nc1ccc2c(c1)OC(F)(F)C(F)O2 (stereo not drawn) [compound 1167] | A (100) | A (100) | A (100)
22 | Cc1cc([S+]([O-])C(F)(F)F)ccc1NC(=O)c1cccc(I)c1C(=O)NC(C)C (stereo not drawn) [compound 1168] | A (100) | A (100) | A (100)
23 | Cc1cc([S+]([O-])C(F)(F)F)ccc1NC(=O)c1cccc(I)c1C(=O)NC(C)(C)C (stereo not drawn) [compound 1169] | A (100) | A (100) | A (100)
24 | CC(C)NC(=O)c1c(I)cccc1C(=O)Nc1ccc2oc(-c3ccc(C(F)(F)F)cc3)nc2c1 [compound 1173] | A (100) | A (100) | A (100)
25 | CC(C)(C)NC(=O)c1c(I)cccc1C(=O)Nc1ccc2oc(-c3ccc(C(F)(F)F)cc3)nc2c1 [compound 1174] | A (100) | A (100) | A (100)
26 | CCN(CC)C(=O)c1c(I)cccc1C(=O)Nc1ccc(OC(F)(F)F)cc1F [compound 1190] | A (100) | A (100) | A (100)
27 | Cc1cc(C(F)(F)C(F)(F)F)ccc1NC(=O)c1cccc(OC(F)(F)F)c1C(=O)NC(C)C [compound 1191] | A (100) | A (100) | A (100)
28 | Cc1cc(C(F)(F)C(F)(F)F)ccc1NC(=O)c1cccc(OC(F)(F)F)c1C(=O)NC(C)(C)C [compound 1192] | A (100) | A (100) | A (100)
29 | CCN(CC)C(=O)c1c(OC(F)(F)F)cccc1C(=O)Nc1ccc(C(F)(F)C(F)(F)F)cc1C [compound 1193] | A (100) | A (100) | A (100)
30 | Cc1cc(C(F)(F)C(F)(F)F)ccc1NC(=O)c1ccc(I)cc1C(=O)NC(C)C [compound 1202] | A (100) | A (100) | A (100)
31 | Cc1cc(C(F)(F)C(F)(F)F)ccc1NC(=O)c1cc(I)ccc1C(=O)NC(C)C [compound 1203] | A (100) | D (79-50) | A (100)
32 | Cc1cc(OC(F)F)ccc1NC(=O)c1ccc(I)cc1C(=O)NC(C)C [compound 1204] | A (100) | A (100) | A (100)
33 | Cc1cc(OC(F)(F)C(F)F)ccc1NC(=O)c1cccc(C(F)(F)F)c1C(=O)NC(C)C [compound 1206] | A (100) | A (100) | A (100)
34 | Cc1cc(C(F)(C(F)(F)F)C(F)(F)F)ccc1NC(=O)c1cccc(C(F)(F)F)c1C(=O)NC(C)C [compound 1207] | A (100) | A (100) | A (100)
35 | CCc1cc(OC(F)(F)F)ccc1NC(=O)c1cccc(Cl)c1C(=O)NC(C)C [compound 1209] | A (100) | D (79-50) | A (100)
36 | CCc1cc(OC(F)(F)F)ccc1NC(=O)c1cccc(I)c1C(=O)NC(C)C [compound 1210] | A (100) | A (100) | A (100)
37 | CCc1cc(OC(F)(F)F)ccc1NC(=O)c1cccc(I)c1C(=O)NC(C)(C)C [compound 1211] | A (100) | A (100) | A (100)
38 | CCc1cc(OC(F)(F)F)ccc1NC(=O)c1cccc(I)c1C(=O)N(CC)CC [compound 1212] | A (100) | A (100) | A (100)
39 | Cc1cc(OC(F)(F)F)ccc1NC(=O)c1ccc(Cl)c(Cl)c1C(=O)NC(C)C [compound 1221] | A (100) | A (100) | A (100)
